The text below walks through data of US9408899B2, “Vaccines against Toxoplasma gondii” (priority 2010, dated 2016).

Where two headings read alike, the source gives them in different places. No end group written: not given here.

What is called Kd is the constant that tells how readily two partners part at equilibrium. Low readings indicate higher affinity, high ones lower affinity.

The test system of assay [1] is splenocytes from HLA-A*1101 transgenic mice. The experiment in a line: IFN-γ ELISpot with splenocytes of immunized HLA-A*1101 transgenic mice. In kind it is in vivo. The conditions noted are these: for IFN-γ production by splenocytes of lipopeptide-immunized mice: HLA-A*1101 mice immunized twice at three week intervals with lipopeptide in PBS, stimulated with peptides.
Experimental: As controls, mice were injected with PBS. Mice were vaccinated twice at 3-week intervals.
Murine splenocytes: Mice were euthanized 7 to 14 days after immunization. Spleens were harvested, pressed through a 70 μm screen to form a single-cell suspension, and depleted of erythrocytes with AKC lysis buffer (160 mM NH4Cl, 10 mM KHCO3, 100 μM EDTA).
5×10^5 splenocytes were plated per well.
Both murine and human cells were plated in at least 3 replicate wells for each condition. Results were expressed as number of spot forming cells (SFCs) per 10^6 PBMCs or per 10^6 murine splenocytes.
All mouse experiments were repeated at least twice, with 4-5 mice for each group.

Assay [2] deals with HLA-A*3101 (Homo sapiens, UniProt P04439, A270S/D185E/E176V/E277Q/F33T/G231S/G80R/H175R/I121M/I218V/I322F/K168Q/L300P/L318F/M331R/P217A/Q94H/R138Q/T323A/T345S/T97I/V358M). The experiment in a line: MHC-peptide binding assay. The note with it: MHC binding affinity; IC50 approximates Kd; unit inferred. An excerpt: (§1) Assays were as described in Sidney, J., et al. Immunome Res 4, 2 (2008).

Assay [3] concerns the target HLA-A*0301 (Homo sapiens, UniProt P04439). The experiment in a line: MHC-peptide binding assay. The conditions noted are these: MHC binding affinity; IC50 approximates Kd; unit inferred.
Text: as §1

Assay [4] concerns the target HLA-A*3301 (Homo sapiens, UniProt P04439, A270S/D185E/E176V/E277Q/E87N/F33T/G231S/H175R/I121M/I218V/I322F/K168Q/K210R/L300P/L318F/M331R/P217A/Q86R/Q94H/R138Q/T323A/T345S/T97I/V358M/Y195H). The assay can be described thus: MHC-peptide binding assay. The conditions noted are these: MHC binding affinity; IC50 approximates Kd; unit inferred.
Text: as §1

In assay [5] the target is HLA-A*6801 (Homo sapiens, UniProt P04439, A269V/D185E/E176V/E277Q/E87N/F33Y/G231S/I121M/I166T/I218V/L180W/L300P/L318F/N151K/P208A/P217A/Q86R/R169H/T345S). The experiment in a line: MHC-peptide binding assay. The conditions noted are these: MHC binding affinity; IC50 approximates Kd; unit inferred.
Text: as §1

Assay [6] has as its target HLA-A*3001 (Homo sapiens, UniProt P04439, D140H/D185E/E176W/F33S/G80R/H175R/K168Q/R138E/R41S). The assay can be described thus: MHC-peptide binding assay. The conditions noted are these: MHC binding affinity; IC50 approximates Kd; unit inferred.
Text: as §1

The target of assay [7] is HLA-A*1101 (Homo sapiens, UniProt P04439, A114D/D185E/E176A/F33Y/L180Q/S129P/T187R). The assay can be described thus: MHC-peptide binding assay. The conditions noted are these: unit inferred.
Text: Under conditions used, where [radiolabeled probe]<[MHC] and IC50≧[MHC], measured IC50 values are reasonable approximations of true Kd values.
Assay [8] deals with HLA-A03 supertype. The experiment in a line: MHC-peptide binding assay, number of supertype alleles bound. On the set-up: species or system human. The conditions noted are these: of six HLA-A03 supertype alleles tested.
Text: as §1

The target in assay [9] is HLA-A*0201 (Homo sapiens, UniProt P04439, D140Y/D185E/D98H/E176V/E277Q/G131W/G231S/I119V/I121R/I166T/I218V/L300P/L318F/N151K/N90K/P208A/P217A/Q86G/Q94H/R138H/R169H/T345S). The experiment in a line: MHC-peptide binding assay (inhibition of binding of radiolabeled standard peptide). The note with it: for IC50: MHC binding assay, measured IC50 approximates Kd, no unit in table, text b40 speaks of nM, read-out: Affinity (c) HLA-A*0201.
Experimental: (§2) Briefly, 1-10 nM of radiolabeled peptides were co-incubated with 1 M-1 nM purified MHC and 1-3 human β2-microglobulin. After 2 days, binding of radiolabeled peptide to corresponding MHC Class I molecule was determined by capturing MHC-peptide complexes on Greiner GREINER® Lumitrac 600 microplates coated with W6/32 antibody and measuring bound counts per minutes using a Topcount microscintillation counter. […] Under conditions used, where [radiolabeled probe]<[MHC] and IC50≧[MHC], measured IC50 values are reasonable approximations of true Kd values.

Assay [10] relates to Splenic T cells from HLA-A*0201 mice. The experiment in a line: IFN-γ ELISpot with splenocytes of immunized HLA-A*0201 transgenic mice. In kind it is in vivo. The conditions noted are these: for IFN-γ production from T cells of immunized mice: HLA-A*0201 mice immunized with pooled peptides plus PADRE; for IFN-γ production in vitro by T cells from immunized mice: HLA-A*0201 mice immunized with pooled peptides alone, stimulated with the individual peptide.
Experimental: Eleven to fourteen days post immuniztion, spleen cells were isolated and exposed to each individual peptide.
5×10^5 splenocytes were plated per well. All antibodies and reagents used for ELISpot assays were obtained from Mabtech (Cincinnati, Ohio). Cells were plated in at least 3 replicate wells for each condition. Results were expressed as number of spot forming cells (SFCs) per 10^6 PBMCs or per 10^6 murine splenocytes.
Mice were boosted once at a 2-week interval.
Three to five mice from each group were euthanized 7 to 14 days after the last immunization. Spleens were harvested, pressed through a 70 μm screen to form a single-cell suspension, and depleted of erythrocytes with ASK lysis buffer (160 mM NH4Cl, 10 mM KHCO3, 100 μM EDTA).
Each ELISpot experiment was replicated a minimum of twice. P values of ≦0.05 were considered significant.

The target in assay [11] is HLA-A*0202 (Homo sapiens, UniProt P04439, D140Y/D185E/D98H/E176V/E277Q/G131W/G231S/I119L/I121R/I166T/I218V/L180W/L300P/L318F/N151K/N90K/P208A/P217A/Q67R/Q86G/Q94H/R138H/R169H/T345S). The assay can be described thus: biochemical.
Experimental: as §2
Assay [12] concerns the target HLA-A*0203 (Homo sapiens, UniProt P04439, A173T/D140Y/D185E/D98H/E277Q/G131W/G231S/I119V/I121R/I166T/I218V/L180W/L300P/L318F/N151K/N90K/P208A/P217A/Q86G/Q94H/R138H/R169H/T345S). The experiment in a line: MHC-peptide binding assay.
Experimental: as §2
Assay [13] deals with splenocytes from HLA-B*0702 transgenic mice. The conditions noted are these: HF10 administered as lipopeptide with PADRE or with MLA, earlier work; cited from earlier work.
[14] abbreviates: Table 3, MHC binding assay, read-out: Affinity^b HLA-A*1101.

Take `CC(C)C[C@H](NC(=O)[C@H](CC(C)C)NC(=O)[C@H](CC(=O)O)NC(=O)[C@H](CCCCN)NC(=O)[C@H](Cc1ccccc1)NC(=O)[C@H](CO)NC(=O)[C@@H](N)CCCNC(=N)N)C(=O)N[C@@H](CCCCN)C(=O)N[C@@H](CCCCN)C(=O)O`: the “IFN-γ production on stimulation of spleen cells with the peptide” value in assay [1] (HLA-A*1101 mice immunized with a mixture of peptides and adjuvants) is recorded as “not present”.
AVVSLLRLLK: the IC50 in [2] stood at 1.3 µM; in assay [3], 0.017 µM; in assay [4] it was 1.1 µM; in [5], 0.094 µM; in assay [6], 0.0081 µM; in [7] (setting [14]), 0.034 µM. The “SUPERTYPE ALLELES BOUND” value in assay [8] worked out at 4.
In the case of FLLGLLVHV [SAG3375-383], the IC50 in [9] was determined as 6.4 nM. The “IFN-γ production from T cells of immunized mice” value (shortened to “IFN-γ production from T cells”) in [10] was “significant IFN-γ production”.
With FLSLSLLVI [SAG2C38-46], the Kd in assay [11] lay within 0.05 to 0.5 µM. Moreover, in assay [9], the Kd was above 0.05 µM and the IC50 is 736 nM. In addition, in [10], the “IFN-γ production in vitro by T cells from immunized mice” value is given as “significant IFN-γ production” and the “IFN-γ production from T cells” value is given as “significant IFN-γ production”. The compound also returned a Kd in assay [12] of 0.05 to 0.5 µM.
For the compound FLTDYIPGA [SAG3136-144], in assay [9], the IC50 stood at 0.7 nM.
Turning to FMIAFISCFA [SAG2D180-189], in assay [9], the IC50 worked out at 32 nM. Moreover, in [10], the “IFN-γ production in vitro by T cells from immunized mice” value was “significant IFN-γ production” and the “IFN-γ production from T cells” value is “significant IFN-γ production”.
For FMIVSISLV [SAG2X351-359], the IC50 in assay [9] is 16 nM. Also, the “IFN-γ production from T cells” value in assay [10] is listed as “significant IFN-γ production”.
Taken in the same sequence, the figures for FVIFACNFV [SAG2X44-52] were 34 nM and “significant IFN-γ production”.
On to GLAAAVVAV [SPA82-90], for which the IC50 in assay [9] was found to be 9.6 nM.
For “HPGSVNEFDF (listed as Toxoplasma gondii) [HF10]”, in [13], the “immunogenic in HLA-B07 transgenic mice” value is reported as “not immunogenic”.
In the case of ITMGSLFFV [SPA12-20], in assay [9], the IC50 was 0.16 nM.
As to “LpAM9: lipopeptide: palmitic acid-bearing lysine, PADRE, then AMLTAFFLR (GRA6164-172)”, the “IFN-γ production by splenocytes of lipopeptide-immunized mice” value in assay [1] was “higher IFN-γ production than LpRS9”.
For “LpKS9: lipopeptide: palmitic acid-bearing lysine, PADRE, then KSFKDILPK (SAG1224-232)”, the “IFN-γ production by splenocytes of lipopeptide-immunized mice” value in assay [1] is listed as “higher IFN-γ production than LpRS9”.
For SSAYVFSVK, the IC50 in [2] was 0.097 µM; in [3], 0.012 µM; in assay [4], 0.181 µM; in assay [5], 0.0021 µM; in assay [6], 1.83 µM; in [7] (setting [14]), 0.01 µM. Besides, in assay [8], the “SUPERTYPE ALLELES BOUND” value worked out at 5.
Turning to STFWPCLLR, the IC50 was 0.0012 µM in assay [2]; 0.022 µM in assay [3]; 0.0034 µM in [4]; 0.00097 µM in [5]; 1.27 µM in [6]; 0.01 µM in assay [7] (MHC binding affinity, Table 2b, IC50 approximates Kd, read-out: HLA-A*1101). For the same compound, in assay [8], the “SUPERTYPE ALLELES BOUND” value was 5.
